Assay results from US10435388B2, “Selective inhibitors of clinically important mutants of the EGFR tyrosine kinase” (CS PHARMATECH LIMITED, priority 2016, dated 2019).
Structures can show the parent of a compound that is named as a salt.

Tests used:
EGFR_d746-750 = EGFR_d746-750 (Homo sapiens, UniProt P00533, DEL746-750); test: Enzyme assay, IC50 for single mutant EGFR_d746-750 (Caliper); format: biochemical; settings: enzyme phosphorylation assay
Description: (§1) Using the same technique as described in the previous paragraph, various mutated forms of the epidermal growth factor receptor may be isolated from appropriate cell lines which contain them. For example, the EGFR de1746-750 mutant protein may be extracted from PC-9 cells, and the L858R/T790M double mutant EGFR protein may be isolated from H1975 cells.
Determination of IC50 Values for Single Mutant EGFR_d746-750
Dilute all compounds to 500 μM stock solutions in 100% DMSO and make a serial of 4-fold dilution for 10 doses. “Max” and “Min” control contain 100% DMSO. “Max” stands for […], “Min” stands for low control without compounds. Transfer 10 μl of compounds to 90 μl of 1× kinase base buffer to make intermediate dilution. […] Incubate at RT for 1 hr and 25 μl stop buffer to end up reaction. Collect conversion data from Caliper and conversion data from Caliper program. Fit the data in XLfit to obtain IC50 values.

EGFR_T790M/L858R = EGFR_T790M/L858R (Homo sapiens, UniProt P00533, L858R/T790M); test: Enzyme assay, IC50 for double-mutant EGFR (EGFR_T790M/L858R) (Caliper); format: biochemical; settings: enzyme phosphorylation assay; read-out: EGFR_L858R/T790 IC50
Description: as §1
Determination of IC50 Values for Double-Mutant EGFR (EGFR_T790M/L858R)
Dilute all compounds to 500 μM stock solutions in 100% DMSO and make a serial of 4-fold dilution for 10 does. “Max” and “Min” control contain 100% DMSO. “Max” stands for […], “Min” stands for low control without compounds. Transfer 10 μl of compounds to 90 μl of 1× kinase base buffer to make intermediate dilution. […] Incubate at RT for 1 hr and 25 μl stop buffer to end up reaction. Collect conversion data from Caliper and conversion data from Caliper program. Fit the data in XLfit to obtain IC50 values.

Wt EGFR = molecular target: T1, Wt EGFR (Homo sapiens, UniProt P00533); test: Enzyme assay, IC50 for wt EGFR (Caliper); format: biochemical; settings: enzyme phosphorylation assay; read-out: EGFR_WT IC50
T1 construct: isolated from A431 human epidermoid carcinoma cells which overexpress EGF receptor; endogenous in cells; host or cells: A431 human epidermoid carcinoma cells (receptor purified on wheat germ agglutinin sepharose)
Description: Purification of Epidermal Growth Factor Receptor Tyrosine Kinase Human EGF receptor tyrosine kinase was isolated from A431 human epidermoid carcinoma cells which overexpress EGF receptor by the following methods. Cells were grown in roller bottles in 50% Delbuco's Modified Eagle and 50% HAM F-12 nutrient media (Gibco) containing 10% fetal calf serum. Approximately 10^9 cells were lysed in two volumes of buffer containing 20 mM 2-(4N-[2-hydroxyethyl]piperazin-1-yl)ethanesulfonic acid (hepes), pH 7.4, 5 mM ethylene glycol bis(2-aminoethyl ether) N,N,N′,N′-tetraacetic acid, 1% Triton X-1OO, 10% glycerol. 0.1 mM sodium orthovanadate, 5 mM sodium fluoride, 4 mM pyrophosphate, 4 mM benzamide, 1 mM dithiothreitol, 80 μg/mL aprotinin, 40 μg/mL leupeptin and 1 mM phenylmethylsulfonyl fluoride. After centrifugation at 25,000×g for 10 minutes, the supernatant was equilibrated for 2 h at […], with 10 mL of wheat germ agglutinin sepharose that was previously equilibrated with 50 mM Hepes, 10% glycerol, 0.1% Triton X-100 and 150 mM NaCl, pH 7.5, (equilibration buffer). Contaminating proteins were washed from the resin with 1M NaCl in equilibration buffer, and the enzyme was eluted with 0.5M N-acetyl-1-D-glucosamine in equilibration buffer, followed by 1 mM urea. The enzyme was eluted with 0.1 mg/ml EGF.
Determination of IC50 Values for Wt EGFR
Dilute all compounds to 500 μM stock solutions in 100% DMSO and make a serial of 4-fold dilution for 10 does. “Max” and “Min” control contain 100% DMSO. “Max” stands for […], “Min” stands for low control without compounds. Transfer 10 μl of compounds to 90 μl of Ix kinase base buffer to make intermediate dilution. Transfer 5 μl of intermediate dilution compounds to the 384-well assay plate, then 10 μl 2.5× enzyme buffer containing (20 nM EGFR, 5 mM DTT, 1× kinase base buffer) were added to assay plate. […] Incubate at RT for 1 hr and 25 μl stop buffer to end up reaction. Collect conversion data from Caliper and conversion data from Caliper program. Fit the data in XLfit to obtain IC50 values.

PC9 cells (SM) = test: PC-9 growth inhibition assay (cell proliferation), Method B; format: cell-based, human; settings: Homo sapiens, PC-9, 72 h, cellular proliferation, several runs
Description: (§2) Cell Proliferation Assays—Method B
(§3) Test compounds were dissolved in DMSO at 30 mM.
(§4) The final concentration was 1,000 cells/well. Add medium only as low control. […] 5% CO2 incubator for 72 hours.
(§5) After 72 hours incubation, remove the plates from incubator and equilibrate at room temperature for 15 minutes. Incubate the CellTiter Glo reagents (Promega, G9243) at 37° C. before the experiment. The buffer was equilibrated to room temperature and used to dissolve the substrate. To determine the cell viability, add 40 μL of CellTiter-Glo reagent into each well to be detected (at 1:1 to culture medium). Then the place the plates at room temperature for 30 min followed by read on EnSpire (PerkinElmer).
(§6) For estimation of IC50, the luminescence readout are transformed to % Inhibition by applying the following equation: The IC50 was then
(§7) [formula] calculated by fitting in XLFit to a four parameters logistic curve.
PC-9 Growth Inhibition Assay (Cell Proliferation).
The inhibition assay of PC-9 cells was conducted in the same manner as described above for H1975 cells.

H1975 cells (DM) = test: H1975 inhibition assay (cell proliferation), Method B; format: cell-based; settings: Homo sapiens, NCI-H1975, 72 h, cellular proliferation, several runs
Description: as §2
H1975 Inhibition Assay (Cell Proliferation).
as §3, §4, §5, §6, §7

A431 cells (WT) = test: A431 inhibition assay (cell proliferation), Method B; format: cell-based, human; settings: Homo sapiens, A-431, 72 h, cellular proliferation, several runs
Description: as §2
A431 Inhibition Assay, (Cell Proliferation).
The rest procedure was conducted in the same manner as described above for H1975 cells.

IGF-1R = molecular target: T2, IGF-1R (Homo sapiens, UniProt P08069); test: IGF-1R inhibition assay (Caliper EZ Reader); format: biochemical; settings: enzyme assay
T2 construct: purchased CARNA BIOSCIENCE 08-141
Description: (§8) Test compound was dissolved in DMSO at 30 mM. […] 20 nL of these compounds DMSO dilutes were dispensed into a new 384-well assay plate by Echo 550. […] 15 uL of kinase assay buffer containing IGF-1R protein and substrate was transferred to assay plate and incubate at RT for 30 minutes. Kinase assay buffer supplemented with substrate peptides was employed as low control to monitor the background. 40 μM ATP was prepared in kinase assay buffer containing and 5 μL of ATP solution was added to each well to start the reaction. The assay plate was incubated at 25° C. for 180 minutes and the reaction was stopped by adding 40 μL of 0.5 M EDTA.
Phosphorylated fluorescent-tagged peptides were differentiated from non-phosphorylated peptides by separating using Caliper EZ Reader II and the detection was directly converted to conversion ratio.

INSR = molecular target: T3, INSR (Homo sapiens, UniProt P06213); test: INSR inhibition assay (Caliper EZ Reader); format: biochemical; settings: enzyme assay
T3 construct: purchased CARNA BIOSCIENCE 08-142
Description: as §8, with “INSR” for “IGF-1R”, “LM” for “μM”
The result is analyzed in the same manner of […].

[1] = test system: PC9 cells (EGFR d746-750 single mutant); test: PC-9 growth inhibition assay (cell proliferation), Method A; format: cell-based, human; settings: Homo sapiens, PC-9; cellular proliferation, *tested by method A (Table 2); read-out: SM (PC9) IC50
Description: (§9) Cell Proliferation Assays—Method A
(§10) The final concentration was 4,000 cells/well. Add medium only as low control.
(§11) Day-2: Test compounds were dissolved in DMSO at 0.2 mM (200×).
(§12) Day-5: After 72 hours incubation, remove the plates from incubator and equilibrate at room temperature for 15 minutes. Incubate the CellTiter Glo reagents (Promega, G9243) at 37° C. before the experiment. The buffer was equilibrated to room temperature and used to dissolve the substrate. To determine the cell viability, add 30 μL of CellTiter-Glo reagent into each well to be detected. Then shake the plates at room temperature for 10 min and followed by plate read on Envision (PerkinElmer).
as §6, §7
PC-9 Growth Inhibition Assay (Cell Proliferation)
The inhibition assay for PC-9 cells was processed in the same manner as described for the H1975 cells.

[2] = test system: NCI-H1975 cells (EGFR L858R/T790 double mutant); test: H1975 inhibition assay (cell proliferation), Method A; format: cell-based; settings: Homo sapiens, NCI-H1975; cellular proliferation, *tested by method A (Table 2); read-out: DM (H1975) IC50
Description: as §9
H1975 Inhibition Assay (Cell Proliferation)
as §10, §11, §12, §6, §7

T2 sequence (P08069 959-1367 limits assumed): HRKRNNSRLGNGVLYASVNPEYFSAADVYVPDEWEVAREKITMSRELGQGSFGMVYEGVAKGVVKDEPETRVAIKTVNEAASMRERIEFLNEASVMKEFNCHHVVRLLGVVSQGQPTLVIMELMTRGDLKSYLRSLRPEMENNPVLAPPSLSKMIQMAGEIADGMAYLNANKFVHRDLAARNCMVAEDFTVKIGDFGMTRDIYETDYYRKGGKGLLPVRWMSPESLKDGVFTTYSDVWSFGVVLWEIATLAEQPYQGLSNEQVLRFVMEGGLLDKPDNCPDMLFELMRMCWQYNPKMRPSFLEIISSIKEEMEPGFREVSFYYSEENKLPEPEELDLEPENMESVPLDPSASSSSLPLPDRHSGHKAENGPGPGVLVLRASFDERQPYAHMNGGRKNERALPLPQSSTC
T3 sequence (P06213 989-1382 limits assumed): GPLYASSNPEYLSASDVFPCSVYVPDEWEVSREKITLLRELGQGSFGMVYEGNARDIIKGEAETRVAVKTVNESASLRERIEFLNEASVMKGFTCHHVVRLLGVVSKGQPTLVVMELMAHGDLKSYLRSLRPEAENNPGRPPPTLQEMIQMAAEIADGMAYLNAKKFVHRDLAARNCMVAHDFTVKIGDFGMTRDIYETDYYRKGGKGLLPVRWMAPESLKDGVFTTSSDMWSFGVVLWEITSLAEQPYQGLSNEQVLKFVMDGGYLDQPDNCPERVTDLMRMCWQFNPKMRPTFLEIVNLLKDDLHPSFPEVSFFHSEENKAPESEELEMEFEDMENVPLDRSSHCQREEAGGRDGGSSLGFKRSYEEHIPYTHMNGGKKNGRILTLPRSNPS
Sequence of EGFR_d746-750 (P00533 with tags, fused parts or gaps DEL746-750): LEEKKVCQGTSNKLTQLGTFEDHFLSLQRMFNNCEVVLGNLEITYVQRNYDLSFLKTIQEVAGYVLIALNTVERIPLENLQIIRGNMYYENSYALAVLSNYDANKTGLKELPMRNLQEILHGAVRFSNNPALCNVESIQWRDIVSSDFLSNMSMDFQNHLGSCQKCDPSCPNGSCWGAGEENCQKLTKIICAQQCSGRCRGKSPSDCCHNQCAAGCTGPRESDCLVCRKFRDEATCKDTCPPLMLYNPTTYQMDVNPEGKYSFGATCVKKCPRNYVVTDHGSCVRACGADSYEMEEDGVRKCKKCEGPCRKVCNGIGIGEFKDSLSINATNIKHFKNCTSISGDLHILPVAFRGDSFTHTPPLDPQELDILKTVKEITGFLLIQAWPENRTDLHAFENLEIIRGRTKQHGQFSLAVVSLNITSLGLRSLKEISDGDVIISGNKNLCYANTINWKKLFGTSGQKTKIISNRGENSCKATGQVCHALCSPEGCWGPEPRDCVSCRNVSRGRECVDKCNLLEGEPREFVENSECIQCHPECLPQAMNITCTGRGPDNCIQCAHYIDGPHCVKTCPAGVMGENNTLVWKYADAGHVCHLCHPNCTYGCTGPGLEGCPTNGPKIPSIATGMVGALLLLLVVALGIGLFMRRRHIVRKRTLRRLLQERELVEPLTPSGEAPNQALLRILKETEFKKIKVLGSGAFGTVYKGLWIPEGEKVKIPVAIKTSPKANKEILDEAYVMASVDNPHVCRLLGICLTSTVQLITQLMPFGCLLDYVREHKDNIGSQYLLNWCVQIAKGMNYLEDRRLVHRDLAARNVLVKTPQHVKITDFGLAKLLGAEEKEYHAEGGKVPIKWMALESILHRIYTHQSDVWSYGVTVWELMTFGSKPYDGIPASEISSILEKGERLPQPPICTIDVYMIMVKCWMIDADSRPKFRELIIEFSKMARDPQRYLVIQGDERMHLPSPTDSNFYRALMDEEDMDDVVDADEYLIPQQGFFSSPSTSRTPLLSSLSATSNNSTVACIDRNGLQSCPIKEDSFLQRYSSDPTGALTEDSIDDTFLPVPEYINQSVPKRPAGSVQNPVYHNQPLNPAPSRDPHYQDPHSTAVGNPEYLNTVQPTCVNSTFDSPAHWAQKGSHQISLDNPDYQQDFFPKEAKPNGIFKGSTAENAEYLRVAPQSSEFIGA
Sequence of EGFR_T790M/L858R (P00533 25-1210 T790M/L858R): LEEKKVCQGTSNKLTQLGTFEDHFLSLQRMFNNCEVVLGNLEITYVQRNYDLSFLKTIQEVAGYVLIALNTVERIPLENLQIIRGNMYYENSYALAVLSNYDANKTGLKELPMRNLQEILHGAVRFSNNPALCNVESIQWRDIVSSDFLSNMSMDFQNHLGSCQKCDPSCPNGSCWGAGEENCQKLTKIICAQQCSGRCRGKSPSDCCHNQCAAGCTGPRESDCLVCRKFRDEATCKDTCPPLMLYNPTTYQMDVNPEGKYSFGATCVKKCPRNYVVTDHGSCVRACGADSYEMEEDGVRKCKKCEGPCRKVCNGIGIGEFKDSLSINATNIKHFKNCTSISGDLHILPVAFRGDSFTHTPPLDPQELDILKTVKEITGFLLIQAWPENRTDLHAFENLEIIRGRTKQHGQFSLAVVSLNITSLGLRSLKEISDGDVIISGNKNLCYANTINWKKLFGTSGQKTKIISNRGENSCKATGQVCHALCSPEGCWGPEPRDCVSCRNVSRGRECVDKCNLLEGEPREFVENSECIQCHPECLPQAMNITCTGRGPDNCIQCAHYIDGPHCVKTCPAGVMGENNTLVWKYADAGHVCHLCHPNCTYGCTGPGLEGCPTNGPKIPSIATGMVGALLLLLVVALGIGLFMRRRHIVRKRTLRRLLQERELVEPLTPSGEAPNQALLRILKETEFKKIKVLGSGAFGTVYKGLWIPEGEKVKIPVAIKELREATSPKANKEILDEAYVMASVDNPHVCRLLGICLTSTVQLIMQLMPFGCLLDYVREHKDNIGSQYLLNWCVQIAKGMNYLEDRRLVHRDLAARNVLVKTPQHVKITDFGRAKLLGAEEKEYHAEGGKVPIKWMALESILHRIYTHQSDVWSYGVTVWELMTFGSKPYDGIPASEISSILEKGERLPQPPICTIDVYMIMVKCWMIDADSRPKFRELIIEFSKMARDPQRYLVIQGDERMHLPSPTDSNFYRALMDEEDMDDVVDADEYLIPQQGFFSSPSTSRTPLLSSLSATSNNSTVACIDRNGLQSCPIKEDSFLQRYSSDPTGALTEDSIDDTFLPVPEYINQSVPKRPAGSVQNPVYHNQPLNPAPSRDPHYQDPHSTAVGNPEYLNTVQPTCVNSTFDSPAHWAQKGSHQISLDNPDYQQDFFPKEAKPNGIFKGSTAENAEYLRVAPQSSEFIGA
T1 sequence (P00533 25-1210): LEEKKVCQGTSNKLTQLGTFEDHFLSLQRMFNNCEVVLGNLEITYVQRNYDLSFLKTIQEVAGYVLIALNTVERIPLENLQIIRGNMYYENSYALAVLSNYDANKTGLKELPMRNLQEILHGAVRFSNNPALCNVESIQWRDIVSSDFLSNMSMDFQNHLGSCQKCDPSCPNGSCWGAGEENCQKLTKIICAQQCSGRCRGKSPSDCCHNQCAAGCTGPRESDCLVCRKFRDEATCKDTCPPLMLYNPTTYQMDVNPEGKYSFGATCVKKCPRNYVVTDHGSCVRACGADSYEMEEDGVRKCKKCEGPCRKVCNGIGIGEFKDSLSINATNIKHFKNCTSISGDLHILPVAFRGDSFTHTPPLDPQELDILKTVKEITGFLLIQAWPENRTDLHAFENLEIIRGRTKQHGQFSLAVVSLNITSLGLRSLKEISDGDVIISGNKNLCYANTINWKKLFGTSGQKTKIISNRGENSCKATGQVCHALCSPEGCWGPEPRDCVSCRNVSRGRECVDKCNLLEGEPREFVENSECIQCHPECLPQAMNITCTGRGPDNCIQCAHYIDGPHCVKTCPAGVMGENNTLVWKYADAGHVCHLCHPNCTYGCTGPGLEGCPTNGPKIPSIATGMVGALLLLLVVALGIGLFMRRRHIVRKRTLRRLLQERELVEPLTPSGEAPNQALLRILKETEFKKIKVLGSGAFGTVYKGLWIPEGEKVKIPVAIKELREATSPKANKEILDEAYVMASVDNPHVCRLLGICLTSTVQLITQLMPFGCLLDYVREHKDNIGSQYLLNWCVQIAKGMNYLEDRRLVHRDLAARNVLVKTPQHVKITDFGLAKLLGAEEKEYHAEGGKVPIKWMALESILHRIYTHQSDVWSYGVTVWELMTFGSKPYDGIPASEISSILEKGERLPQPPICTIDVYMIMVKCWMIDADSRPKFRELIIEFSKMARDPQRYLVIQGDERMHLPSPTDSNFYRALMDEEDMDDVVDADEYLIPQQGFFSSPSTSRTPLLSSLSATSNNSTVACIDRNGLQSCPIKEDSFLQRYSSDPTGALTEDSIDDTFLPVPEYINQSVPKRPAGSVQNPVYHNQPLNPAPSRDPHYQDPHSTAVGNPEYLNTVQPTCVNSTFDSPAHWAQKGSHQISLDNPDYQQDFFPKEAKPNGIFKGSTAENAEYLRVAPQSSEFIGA

Structure (SMILES)	IC50 (EGFR_d746-750) [µM]	IC50 (EGFR_T790M/L858R) [µM]	IC50 (Wt EGFR) [µM]	IC50 (PC9 cells (SM)) [µM]	IC50 (H1975 cells (DM)) [µM]	IC50 (A431 cells (WT)) [µM]	IC50 (IGF-1R) [nM]	IC50 (INSR) [nM]	IC50 [1] [µM]	IC50 [2] [µM]
C=CC(=O)Nc1cc(Nc2nccc(-c3cn(C)c4cccc(C)c34)n2)c(OC)cc1N(C)CCN(C)C [Example 5, N-(2-(N-(2-(N,N-Dimethylamino)ethyl)-N-methylamino)-4-methoxy-5-(4-(1 N,4-dimethylindol-3-yl)pyrimidin-2-ylamino)phenyl)propenamide]	0.0082	0.0027	0.031							
C=CC(=O)Nc1cc(Nc2nccc(-c3cn(C)c4cccc(Cl)c34)n2)c(OC)cc1N(C)CCN(C)C [Example 6, N-(2-(N-(2-(N,N-Dimethylamino)ethyl)-N-methylamino)-4-methoxy-5-(4-(4-chloro-1N-methylindol-3-yl)pyrimidin-2-ylamino)phenyl) propenamide]	0.0092	0.007	0.044							
C=CC(=O)Nc1cc(Nc2nccc(-n3nc(C(N)=O)c4ccccc43)n2)c(OC)cc1N(C)CCN(C)C [Example 18, 1-(2-(5-Acrylamido-4-((2-(dimethylamino)ethyl)(methyl)amino)-2-methoxyphenylamino)pyrimidin-4-yl)-1H-indazole-3-carboxamide]				0.00064	0.00041	0.04	2.15	2.28		

Second part, the compound after the results:

IC50 (EGFR_d746-750) [µM]	IC50 (EGFR_T790M/L858R) [µM]	IC50 (Wt EGFR) [µM]	IC50 (PC9 cells (SM)) [µM]	IC50 (H1975 cells (DM)) [µM]	IC50 (A431 cells (WT)) [µM]	IC50 (IGF-1R) [nM]	IC50 (INSR) [nM]	IC50 [1] [µM]	IC50 [2] [µM]	Structure (SMILES)
			0.00093	0.00094	0.162	71.2	67.6			C=CC(=O)Nc1cc(Nc2nccc(-n3cc(S(N)(=O)=O)c4ccccc43)n2)c(OC)cc1N(C)CCN(C)C [Example 17, N-(2-((2-(Dimethylamino)ethyl)(methyl)amino)-4-methoxy-5-(4-(3-sulfamoyl-1H-indol-1-yl)pyrimidin-2-ylamino)phenyl) acrylamide]
								0.0167	0.0127	C=CC(=O)Nc1cc(Nc2nccc(-n3cc(CN)c4ccccc43)n2)c(OC)cc1N(C)CCN(C)C [Example 19, N-(5-(4-(3-(Aminomethyl)-1H-indol-1-yl)pyrimidin-2-ylamino)-2-((2-(dimethylamino)ethyl)(methyl)amino)-4-methoxyphenyl) acrylamide]
			0.0192	0.0204	1.68	210	206			C=CC(=O)Nc1cc(Nc2nccc(-n3cc(C(=O)O)c4ccccc43)n2)c(OC)cc1N(C)CCN(C)C [Example 30, 1-(2-((5-Acrylamido-4-((2-(dimethylamino)ethyl)(methyl)amino)-2-methoxyphenyl)amino)pyrimidin-4-yl)-1H-indole-3-carboxylic acid]
								0.0575	0.0395	C=CC(=O)Nc1cc(Nc2nccc(-n3cc(C(=O)NC)c4ccccc43)n2)c(OC)cc1N(C)CCN(C)C [Example 36, N-Methyl 1-(2-((5-acrylamido-4-((2-(dimethylamino)ethyl)(methyl)amino)-2-methoxyphenyl)amino)pyrimidin-4-yl)-1H-indole-3-carboxamide hydrochloride]
